Laboratory results as given in patent US4876260A, “Oxathiolanes” (State of Israel, Israel Institute of Biological Research, priority 1988, dated 1989).

What was measured:
[1] = molecular target: T1, M1 muscarinic receptors (3H-PZ sites, forebrain) (Rattus norvegicus, UniProt P08482); assay: Displacement of 3H-Pirenzepine (3H-PZ, selective M1 antagonist) from rat forebrain homogenate; assay type: binding; settings: for M1 selectivity (in words): from Tables 2A, 2B, 2C
T1 sequence (P08482 1-460): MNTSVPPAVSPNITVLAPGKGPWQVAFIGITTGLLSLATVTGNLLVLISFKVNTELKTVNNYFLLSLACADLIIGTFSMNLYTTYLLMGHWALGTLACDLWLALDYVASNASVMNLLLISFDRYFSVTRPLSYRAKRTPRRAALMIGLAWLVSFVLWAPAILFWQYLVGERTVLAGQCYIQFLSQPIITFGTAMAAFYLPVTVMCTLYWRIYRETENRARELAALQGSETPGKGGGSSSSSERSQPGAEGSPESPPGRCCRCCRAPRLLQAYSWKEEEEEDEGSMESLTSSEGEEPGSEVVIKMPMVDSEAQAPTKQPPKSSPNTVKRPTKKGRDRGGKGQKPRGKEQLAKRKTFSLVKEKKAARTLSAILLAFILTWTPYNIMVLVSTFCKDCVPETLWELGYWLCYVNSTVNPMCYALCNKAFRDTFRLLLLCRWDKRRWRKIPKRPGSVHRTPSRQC

[2] = molecular target: muscarinic receptors (3H-QNB sites, M1 and M2, forebrain); assay type: binding, rat; settings: (b) forebrain
[3] = molecular target: T2, M1 muscarinic receptors (3H-PZ sites, frontal cortex) (Rattus norvegicus, UniProt P08482); assay: Displacement of 3H-PZ from rat frontal cortex homogenate; assay type: binding; settings: for Ki: (a') frontal cortex, read-out: Ki(3H-PZ); for a':c', Ki(3H-PZ):Ki(3H-CD): (g) frontal cortex ratio
T2 sequence (P08482 1-460): T1 sequence (P08482 1-460)

[4] = molecular target: muscarinic receptors (3H-QNB sites, frontal cortex); assay type: binding, rat; settings: (b') frontal cortex
[5] = molecular target: muscarinic receptors (3H-CD sites, frontal cortex); assay: Displacement of 3H-CD from rat frontal cortex homogenate; assay type: binding; settings: (c') frontal cortex
[6] = molecular target: T3, muscarinic receptors (3H-QNB sites, cerebellum, mainly M2) (Rattus norvegicus, UniProt P10980); assay: biochemical; assay type: binding; settings: Ki(3H-QNB), (b") cerebellum
T3 sequence (P10980 1-466): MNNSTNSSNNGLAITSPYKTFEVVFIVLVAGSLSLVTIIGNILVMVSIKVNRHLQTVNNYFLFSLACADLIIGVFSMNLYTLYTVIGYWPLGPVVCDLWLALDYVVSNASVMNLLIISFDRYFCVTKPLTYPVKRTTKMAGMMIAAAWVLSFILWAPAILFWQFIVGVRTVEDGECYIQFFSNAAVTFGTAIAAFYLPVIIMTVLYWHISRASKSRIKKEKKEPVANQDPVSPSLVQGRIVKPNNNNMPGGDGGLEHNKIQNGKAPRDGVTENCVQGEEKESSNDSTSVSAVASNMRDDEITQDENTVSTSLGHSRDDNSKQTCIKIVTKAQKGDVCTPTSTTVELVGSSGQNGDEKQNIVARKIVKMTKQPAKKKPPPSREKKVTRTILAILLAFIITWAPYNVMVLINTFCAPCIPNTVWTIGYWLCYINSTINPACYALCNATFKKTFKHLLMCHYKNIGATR

[7] = tested on: muscarinic receptors (3H-QNB sites, cerebellum, mainly M2); assay: biochemical; assay type: binding, rat; settings: for b':b": (k) Ki(3H-QNB) frontal cortex : Ki(3H-QNB) cerebellum
[8] = tested on: isolated guinea-pig ileum; assay: Contraction of isolated guinea-pig ileum preparation
From the text: (§1) From this Table, it appears that compounds (III) were not so effective in contracting the guinea pig ileum preparation.

[9] = tested on: ACh-induced contractions of guinea-pig ileum; assay: Blocking of ACh-induced contractions of isolated guinea-pig ileum; settings: listed as AF122B
From the text: as §1

[10] = tested on: mice; assay: Pharmacodynamic profile and general toxicity in mice; assay type: in vivo, CD-1 mice
Procedure: Male white mice of the CD-1 strain supplied by Charles River Ltd. (U.K.) were used throughout. An acclimatization period of at least three days was allowed between arrival and commencement of a particular experimental series. The animals were fed a complete commercial pelleted rodent diet without restriction during the acclimatization and study periods. Animals had free access to tap water. Body weights during testing were mostly within 20-28 g.
Test materials were prepared as aqueous solutions in physiological saline (0.9% NaCl), up to a maximum concentration of 10 mg./ml. All materials were freshly prepared on the morning prior to each dosing session. Dosages were expressed gravimetrically (mg./kg.), in terms of the materials as received.
Groups of mice (mostly n=5) received either i.v. or oral administration of the test materials at various dose levels. Dose volumes appropriate for respective dose levels selected, were determined for each animal according to body weights on the day of dosing. Any behavioral changes occurring during one to two hours after administration, as well as incidence of death up to 24 hours after dosing were recorded.

[11] = tested on: AF64A-induced cognitive impairment (passive avoidance); assay: Step-through passive avoidance in AF64A- and saline-injected rats; assay type: in vivo; settings: for Retention Latency: 72 hour retention test
From the text: Development of potential drugs for the treatment of Alzheimer's disease requires their evaluation in appropriate animal models for this disease. […] This hippocampal cholinergic deficiency is accompanied by statistically significant cognitive impairments (inter alia) in step-through passive avoidance (PA). The present PA experiment investigated the possibility of reversing such impairments by administration of (+)-III (AF122B).
[…] post-operation, the AF64A and saline-injected groups were randomly subdivided into two treatment sub-groups. Sub-group 1 was treated with 1 mg./kg. i.p. (+)-III (AF122B), while sub-group 2 was treated with […]. i.p. saline. The drug or saline were administered immediately after shock.

[12] = 25 mg/kg i.v., listed as (±)-III AF122B
[13] = 100 mg/kg i.v., immed = immediately
[14] = 100 mg/kg p.o., listed as (±)-III AF122B
[15] = 200 mg/kg p.o., listed as (±)-III AF122B
[16] = 10 mg/kg i.v., listed as (+)-III AF122B
[17] = 25 mg/kg i.v., listed as (+)-III AF122B
[18] = 50 mg/kg i.v., listed as (+)-III AF122B
[19] = 200 mg/kg p.o., listed as (+)-III AF122B
[20] = AF64A-injected rats, 1 mg./kg. i.p.
[21] = saline-injected rats, 1 mg./kg. i.p.

CC1OCC2(CN3CCC2CC3)S1 (stereo not shown) [compound 7, 2-methylspiro(1,3-oxathiolan-4,3')quinuclidine]
a:b, Ki(3H-PZ):Ki(3H-QNB) [1]: 0.17
Ki ([1]; (a) forebrain): 1.22 ± 0.4 µM
M1 selectivity (in words) ([1]; listed as Compound (III)): M1 selectivity is preserved even in the mixture of the geometrical isomers
Ki [2]: 7 ± 0.5 µM

CC1OCC2(CN3CCC2CC3)S1 (stereo not shown) [compound 8, 2-methylspiro(1,3-oxathiolan-4,3')quinuclidine]
a':b', Ki(3H-PZ):Ki(3H-QNB) [3]: 0.11
Ki [3]: 1.66 ± 0.24 µM
a':c', Ki(3H-PZ):Ki(3H-CD) [3]: 0.7
Ki [4]: 15.3 ± 2.2 µM
Ki [5]: 2.3 µM
Ki [6]: 21.1 ± 7.6 µM
b':b" [7]: 0.73
Desensitization [8]: desensitization that was observed
Blocking of the contractions by atropine (remarks) ([8]; listed as AF122B): the contractions were only partially blocked by atropine
Contraction of guinea pig ileum (in words) ([8]; listed as AF122B): contracted the ileum muscle
Effect on ACh-induced contractions (in words) [9]: consistently blocked ACh-induced contractions
Mortality, No. dead/total treated ([10]; 10 mg/kg i.v., listed as (±)-III AF122B): 0/3
Analgesia (nonresponsiveness to tail pinch), No. affected/total treated [10, 12]: 2/5
Convulsive seizures, No. affected/total treated [10, 12]: 5/5
Exophthalmus, No. affected/total treated [10, 12]: 2/5
Mortality, No. dead/total treated [10, 12]: 3/5
Respiratory distress, No. affected/total treated [10, 12]: 2/5
Tremors, No. affected/total treated [10, 12]: 5/5
Convulsive seizures, No. affected/total treated ([10]; 50 mg/kg i.v.): 2/2
Mortality, No. dead/total treated ([10]; 50 mg/kg i.v.): 2/2
Mortality, time after drug administration ([10]; 50 mg/kg i.v.): 5 s
Tremors, No. affected/total treated ([10]; 50 mg/kg i.v.): 2/2
Mortality, No. dead/total treated ([10]; 50 mg/kg p.o.): 0/5
Mortality, No. dead/total treated ([10]; 100 mg/kg i.v.): 2/2
Mortality, time after drug administration [10, 13]: immed
Analgesia (nonresponsiveness to tail pinch), No. affected/total treated ([10]; 100 mg/kg p.o.): 4/4
Convulsive seizures, No. affected/total treated ([10]; 100 mg/kg p.o.): 4/4
Vocalization, No. affected/total treated ([10]; 100 mg/kg p.o.): 1/4
Mortality, No. dead/total treated [10, 14]: 1/4
Tremors, No. affected/total treated [10, 14]: 4/4
Mortality, time after drug administration ([10]; 100 mg/kg p.o., m = minutes): 15 m
Analgesia (nonresponsiveness to tail pinch), No. affected/total treated ([10]; 200 mg/kg p.o.): 4/4
Respiratory distress, No. affected/total treated ([10]; 200 mg/kg p.o.): 4/4
Vocalization, No. affected/total treated ([10]; 200 mg/kg p.o.): 2/4
Convulsive seizures, No. affected/total treated [10, 15]: 4/4
Mortality, No. dead/total treated [10, 15]: 4/4
Tremors, No. affected/total treated [10, 15]: 4/4
Mortality, time after drug administration ([10]; 200 mg/kg p.o., m = minutes): 15 m

C[C@H]1O[C@@]2(CN3CCC2CC3)CS1(=O)=O (relative stereo) [compound 14, cis-2-methylspiro(1,3-oxathiolan-5,3')quinuclidine-3,3-dioxide]
potency (in words) ([1]; compared with (±)-cis-(II)): losing some of its potency
M1 selectivity (in words) [1]: high M1 selectivity
M1 selectivity (in words) ([1]; listed as (±)-cis-(II)-sulfone): still preserved an outstanding profile as judged by its M1 selectivity (ratio a':c')
a':b', Ki(3H-PZ):Ki(3H-QNB) [3]: 0.18
Ki [3]: 5.5 ± 0.43 µM
a':c', Ki(3H-PZ):Ki(3H-CD) [3]: 1.8
Ki [4]: 34.1 ± 3 µM
Ki [5]: 3.06 ± 2 µM
Ki [6]: 44.1 ± 6.5 µM
a':b" ([7]; (i) Ki(3H-PZ) frontal cortex : Ki(3H-QNB) cerebellum): 2.6
b':b" [7]: 0.77
Analgesia (nonresponsiveness to tail pinch), No. affected/total treated ([10]; 50 mg/kg i.v.): 3/5
Mortality, No. dead/total treated ([10]; 50 mg/kg i.v.): 0/5
Analgesia (nonresponsiveness to tail pinch), No. affected/total treated ([10]; 100 mg/kg i.v.): 5/5
Mortality, No. dead/total treated ([10]; 100 mg/kg i.v.): 0/5
Mortality, No. dead/total treated ([10]; 100 mg/kg p.o.): 0/5
Analgesia (nonresponsiveness to tail pinch), No. affected/total treated ([10]; 200 mg/kg p.o.): 5/5
Mortality, No. dead/total treated ([10]; 200 mg/kg p.o.): 0/5

CC1OCC2(CN3CCC2CC3)S1 (single isomer, unassigned) [compound 10, 2-methylspiro(1,3-oxathiolan-4,3')quinuclidine]
Ki [3]: 7.4 µM
Contraction of guinea pig ileum (in words) ([8]; listed as (+)-AF122B): active enantiomer
Convulsive seizures, No. affected/total treated ([10]; 10 mg/kg i.v.): 2/8
Mortality, time after drug administration ([10]; 10 mg/kg i.v.): 5 s
Respiratory distress, No. affected/total treated ([10]; 10 mg/kg i.v.): 1/8
Tremors, No. affected/total treated ([10]; 10 mg/kg i.v.): 2/8
Analgesia (nonresponsiveness to tail pinch), No. affected/total treated [10, 16]: 5/8
Mortality, No. dead/total treated [10, 16]: 1/8
Convulsive seizures, No. affected/total treated [10, 17]: 5/5
Mortality, No. dead/total treated [10, 17]: 4/5
Mortality, time after drug administration [10, 17]: 30 s
Respiratory distress, No. affected/total treated [10, 17]: 1/5
Tremors, No. affected/total treated [10, 17]: 4/5
Mortality, No. dead/total treated [10, 18]: 2/2
Mortality, time after drug administration [10, 18]: 5 s
Mortality, time after drug administration [10, 13]: immed
Mortality, No. dead/total treated ([10]; 100 mg/kg i.v., listed as (+)-III AF122B): 2/2
Analgesia (nonresponsiveness to tail pinch), No. affected/total treated ([10]; 100 mg/kg p.o.): 5/5
Respiratory distress, No. affected/total treated ([10]; 100 mg/kg p.o.): 1/5
Vocalization, No. affected/total treated ([10]; 100 mg/kg p.o.): 1/4
Mortality, No. dead/total treated ([10]; 100 mg/kg p.o., listed as (+)-III AF122B): 0/5
Tremors, No. affected/total treated ([10]; 200 mg/kg p.o.): 3/5
Altered motor activity [10, 19]: a+h
Analgesia (nonresponsiveness to tail pinch), No. affected/total treated [10, 19]: 5/5
Convulsive seizures, No. affected/total treated [10, 19]: 5/5
Mortality, No. dead/total treated [10, 19]: 0/5
Respiratory distress, No. affected/total treated [10, 19]: 4/5
Vocalization, No. affected/total treated [10, 19]: 2/5
Passive avoidance retention (in words) [11, 20]: improved the passive avoidance retention of AF64A-injected rats
Retention Latency [11, 20]: 549.5 ± 29.1 s
Effect on retention latency (in words) ([11]; AF64A-injected rats, 1 mg./kg. i.p., p<0.01): prolonged the retention latency of AF64A-injected rats
Initial latency (training) (in words) ([11]; between any of the groups): No significant differences were found during training
Effect on retention latency (in words) [11, 21]: no significant effect on the retention latency of saline-injected rats
Retention Latency [11, 21]: 552 ± 33.7 s
